Laboratory results taken from patent publication US9404115B2, “Coryneform bacterium transformant and process for producing phenol using the same” (priority 2010, dated 2016).
Read-outs that look alike come from different tables or passages of the source.

What was measured:
Escherichia coli JM109 = conditions: aerobic, LB, 37° C., OD610
Experimental: (§1) A growth inhibition test in aerobic culture was performed to examine the influence of phenol on Corynebacterium glutamicum, Escherichia coli, and Pseudomonas putida. Pseudomonas putida S12, which was used for the test, is reported to be a solvent-resistant strain. In the report, disclosed is an unparalleled technology using the strain as a host in phenol production.
Escherichia coli JM109 was applied to LB agar medium (1% polypeptone, 0.5% yeast extract, 0.5% NaCl and 1.5% agar) and was left stand in the dark at 37° C. for 15 hours.
An inoculation loop of the Escherichia coli JM109 grown on a plate as above was inoculated into a test tube containing 10 mL of LB liquid medium (1% polypeptone, 0.5% yeast extract, and 0.5% NaCl), and aerobic culture was performed with shaking at 37° C. for 13 hours.
(§2) The Escherichia coli JM109 grown in the above conditions was inoculated into 100 mL of LB liquid medium in such a way that the initial bacterial cell concentration would be OD610=0.05, phenol was added at the same time in such a way that the final concentration would be 0, 0.16, or 0.20 mM, and aerobic culture was performed with shaking at 37° C. The growth of bacterial cells was determined by absorbance measurement at OD610.

Pseudomonas putida F1 = conditions: aerobic, LB (+glucose), 30° C., OD610
Experimental: as §1
(§3) Pseudomonas putida F1 and S12 were applied to LB agar medium (1% polypeptone, 0.5% yeast extract, 0.5% NaCl and 1.5% agar) and were left stand in the dark at 30° C. for 15 hours.
(§4) An inoculation loop of each of the Pseudomonas putida F1 and S12 grown on a plate as above was inoculated into a test tube containing 10 mL of LB (+glucose) liquid medium (1% polypeptone, 0.5% yeast extract, 0.5% NaCl and 0.4% glucose), and aerobic culture was performed with shaking at 30° C. for 13 hours.
as §2, with “The Pseudomonas putida F1 and S12” for “The Escherichia coli JM109”, “conditions were each” for “conditions was”, “LB (+glucose)” for “LB”, “0, 0.10,” for “0, 0.16,”, “at 30°” for “at 37°”

Pseudomonas putida S12 = conditions: aerobic, LB (+glucose), 30° C., OD610
Experimental: as §1, §3, §4
as §2, with “The Pseudomonas putida F1 and S12” for “The Escherichia coli JM109”, “conditions were each” for “conditions was”, “LB (+glucose)” for “LB”, “0, 0.10,” for “0, 0.16,”, “at 30°” for “at 37°”

[1] = test system: Corynebacterium glutamicum R; conditions: aerobic, A liquid medium, 33° C., OD610
Experimental: as §1
Corynebacterium glutamicum R was applied to A agar medium (2 g of […], 7 g of (NH4)2SO4, 0.5 g of KH2PO4, 0.5 g of K2HPO4, 0.5 g of MgSO4.7H2O, 1 mL of 0.06% (w/v) Fe2SO4.7H2O+0.042% (w/v) MnSO4.2H2O, 1 mL of 0.02% (w/v) biotin solution, 2 mL of 0.01% (w/v) thiamin solution, 2 g of yeast extract, 7 g of vitamin assay casamino acid, 40 g of glucose, and 15 g of agar were suspended in 1 L of distilled water) and was left stand in the dark at 33° C. for 15 hours.
An inoculation loop of the Corynebacterium glutamicum R grown on a plate as above was inoculated into a test tube containing 10 mL of A liquid medium (2 g of (NH2)2CO, 7 g of (NH4)2SO4, 0.5 g of KH2PO4, 0.5 g of K2HPO4, 0.5 g of MgSO4.7H2O, 1 mL of 0.06% (w/v) Fe2SO4.7H2O+0.042% (w/v) MnSO4.2H2O, 1 mL of 0.02% (w/v) biotin solution, 2 mL of 0.01% (w/v) thiamin solution, 2 g of yeast extract, 7 g of vitamin assay casamino acid, and 40 g of glucose were suspended in 1 L of distilled water) and was aerobically cultured with shaking at 33° C. for 13 hours.
as §2, with “Corynebacterium glutamicum R” for “Escherichia coli JM109”, “A” for “LB”, “0.16, 0.2, 0.24,” for “0.16,”, “0.32” for “0.20”, “33°” for “37°”

[2] = test system: Corynebacterium glutamicum R; conditions: reducing conditions (ORP −450 mV), 8% glucose, 33° C.
Experimental: Corynebacterium glutamicum R was applied to A agar medium and was left stand in the dark at 33° C. for 20 hours.
An inoculation loop of the Corynebacterium glutamicum R grown on a plate as above was inoculated into a test tube containing 10 mL of A liquid medium and was aerobically cultured with shaking at 33° C. for 15 hours.
The Corynebacterium glutamicum R grown in the above conditions was inoculated into a 2 L-conical flask containing 500 mL of A liquid medium and was aerobically cultured with shaking at 33° C. for 15 hours.
The bacterial cells cultured and proliferated as above were collected by centrifugation (5,000×g at 4° C. for 15 minutes). The obtained bacterial cells were suspended in BT (−urea) liquid medium (0.7% ammonium sulfate, 0.05% potassium dihydrogen phosphate, 0.05% dipotassium hydrogen phosphate, 0.05% magnesium sulfate heptahydrate, 0.0006% iron sulfate heptahydrate, 0.00042% manganese sulfate hydrate, 0.00002% biotin and 0.00002% thiamine hydrochloride) so that the concentration of the bacterial cell was 10% (w/v). […] During the reaction, the pH of the reaction mixture was kept at or above 7.0 through addition of 2.5N aqueous ammonia controlled by a pH controller (Type: DT-1023 made by Able).

## Oc1ccccc1 [phenol]
Escherichia coli JM109; 0.16% phenol
  proliferation of Escherichia coli: significantly affected
Escherichia coli JM109; 0.20% phenol
  proliferation of Escherichia coli: completely inhibited
Pseudomonas putida F1; 0.10% phenol
  proliferation of Pseudomonas putida F1: significantly affected
Pseudomonas putida F1; 0.20% phenol
  proliferation of Pseudomonas putida F1: completely inhibited
Pseudomonas putida S12; 0.10% phenol
  proliferation of Pseudomonas putida S12: significantly affected
Pseudomonas putida S12; 0.20% phenol
  proliferation of Pseudomonas putida S12: completely inhibited
[1]; 0.16% phenol
  proliferation of Corynebacterium glutamicum: hardly affected
[1]; 0.20% phenol
  proliferation of Corynebacterium glutamicum: favorable growth
[1]; 0.24% phenol
  proliferation of Corynebacterium glutamicum: able to proliferate
[2]; 0.24% phenol
  saccharide consumption by Corynebacterium glutamicum R: no influence of phenol was observed
[2]; 0.38% phenol
  saccharide consumption by Corynebacterium glutamicum R: saccharide consumption was observed
[2]; 0.46% phenol
  saccharide consumption by Corynebacterium glutamicum R: slightly observed
